Reference: ChEMBL document CHEMBL1201862, “PubChem BioAssay data set” (2004)
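Five concentrations, 48 hours, 96-well plates. Here, GI50 denotes the concentration required for 50% inhibition of growth.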 Calls of active or inactive are those of the source. Cut-off read from the data, not from the text of the source: active = GI50 up to about 1.1 µM and inactive = higher.

Columns and labels:
Assay in all cases: NCI-60 cell line screen, 48 h
[1] = system: UACC-257
[2] = system: DMS-273
[3] = system: UACC-62
[4] = system: HCC 2998
[5] = system: HT-29
[6] = system: OVCAR-8
[7] = system: U-251
[8] = system: SK-OV-3
[9] = system: SK-MEL-2
[10] = system: CAKI-1
[11] = system: A549
[12] = system: SF-295
[13] = system: RXF 393
[14] = system: K562
[15] = system: ACHN
[16] = system: MCF7
[17] = system: Hs-578T
[18] = system: BT-549
[19] = system: MDA-MB-435
[20] = system: DU-145

Structure (SMILES) | GI50 [1] | GI50 [2] | GI50 [3] | GI50 [4] | GI50 [5] | GI50 [6] | GI50 [7] | GI50 [8] | GI50 [9] | GI50 [10] | GI50 [11] | GI50 [12] | GI50 [13] | GI50 [14] | GI50 [15] | GI50 [16] | GI50 [17] | GI50 [18] | GI50 [19] | GI50 [20]
O=C1OC(O)c2cc3c(cc21)OCO3 (stereo not drawn) | > 100 µM (inactive) | > 100 µM (inactive) | > 100 µM (inactive) | > 100 µM (inactive) | > 100 µM (inactive) | > 100 µM (inactive) | > 100 µM (inactive) | > 100 µM (inactive) | > 100 µM (inactive) | > 100 µM (inactive) | > 100 µM (inactive) | > 100 µM (inactive) | > 100 µM (inactive) | > 100 µM (inactive) |  |  |  |  |  | 
CC/C(=C(\c1ccccc1)c1ccc(OCC[N+](C)(C)C)cc1)c1ccccc1 [TAMOXIFEN METHYL IODIDE] | 6.75 µM (inactive) | 6.4 µM (inactive) | 11 µM (inactive) | 17.1 µM (inactive) | 14.6 µM (inactive) | 15.3 µM (inactive) | 13.4 µM (inactive) | 17.5 µM (inactive) | 13.8 µM (inactive) | 17.5 µM (inactive) | 18.7 µM (inactive) | 16.9 µM (inactive) | 17.1 µM (inactive) | 5.65 µM (inactive) | 17.5 µM (inactive) |  |  |  |  | 
CC(C)OC(=O)Nc1c([N+](=O)[O-])cc(C(F)(F)F)cc1[N+](=O)[O-] | > 100 µM (inactive) | > 100 µM (inactive) | > 100 µM (inactive) | > 100 µM (inactive) | > 100 µM (inactive) | 75.7 µM (inactive) | 97.9 µM (inactive) | 40.3 µM (inactive) | > 73.1 µM (inactive) | > 100 µM (inactive) | > 100 µM (inactive) | 54.1 µM (inactive) | 20.1 µM (inactive) | > 46.5 µM (inactive) | > 100 µM (inactive) | > 100 µM (inactive) | 35.1 µM (inactive) | > 100 µM (inactive) | > 100 µM (inactive) | > 100 µM (inactive)
CCCCC(=O)OC[n+]1ccc2c(C)c3[nH]c4ccccc4c3c(C)c2c1 | 1.43 µM (inactive) | 0.147 µM (active) | 1.26 µM (inactive) | 0.433 µM (active) | 0.46 µM (active) | 0.385 µM (active) | 0.574 µM (active) | 0.74 µM (active) | 1.97 µM (inactive) | 1.25 µM (inactive) | 0.267 µM (active) | 0.676 µM (active) | 0.297 µM (active) | 0.186 µM (active) | 0.187 µM (active) | 0.18 µM (active) | 0.217 µM (active) |  | 0.618 µM (active) | 1.04 µM (active)
C/C=C1\Oc2ccc(OC)cc2S1(=O)=O | > 100 µM (inactive) | > 100 µM (inactive) | > 100 µM (inactive) | > 100 µM (inactive) | > 100 µM (inactive) | > 100 µM (inactive) | > 100 µM (inactive) | > 100 µM (inactive) | > 100 µM (inactive) | > 100 µM (inactive) | > 100 µM (inactive) | > 100 µM (inactive) | > 100 µM (inactive) | > 100 µM (inactive) | > 100 µM (inactive) |  |  |  |  | 
COc1cc(CC(=O)c2cc3c(cc2-c2ccccc2)OCO3)cc(OC)c1OC | 23.4 µM (inactive) | 40.2 µM (inactive) |  | > 100 µM (inactive) | > 100 µM (inactive) | 58.7 µM (inactive) | 71.6 µM (inactive) | 49.3 µM (inactive) | 44.2 µM (inactive) |  | 26.1 µM (inactive) | 34.5 µM (inactive) | 30.2 µM (inactive) | 15.8 µM (inactive) | 6.95 µM (inactive) |  |  |  |  | 
CCCCCCCCCCCCCCCC(=O)OCC1OC(N2C(=O)/C(=N\NC(N)=S)c3ccc([N+](=O)[O-])cc32)C(OC(C)=O)C1OC(C)=O (stereo not drawn) | > 100 µM (inactive) | > 100 µM (inactive) | 69.7 µM (inactive) | > 100 µM (inactive) | > 100 µM (inactive) | 52.1 µM (inactive) | 78 µM (inactive) | 48.4 µM (inactive) | > 100 µM (inactive) | > 100 µM (inactive) | 56.2 µM (inactive) | > 100 µM (inactive) | > 100 µM (inactive) | > 100 µM (inactive) | 48.5 µM (inactive) |  |  |  |  | 
CC(C)CC1CC2C(=O)N(c3ccccc3)C(=O)C2c2[nH]c3ccccc3c21 (stereo not drawn) | 26.5 µM (inactive) | 26.9 µM (inactive) | 12.4 µM (inactive) | 17.4 µM (inactive) | 51.9 µM (inactive) | 14.9 µM (inactive) | 25 µM (inactive) | 21.4 µM (inactive) | 25.6 µM (inactive) | 18.7 µM (inactive) | 22.4 µM (inactive) | 20.7 µM (inactive) | 14.6 µM (inactive) | 6.1 µM (inactive) | 38 µM (inactive) |  |  |  |  | 
N#CC1(C#N)C2C=CC(c3coc4cccc2c34)C1(C#N)C#N (stereo not drawn) | 10.8 µM (inactive) | 16.7 µM (inactive) | 10.2 µM (inactive) | 15.2 µM (inactive) | 18.9 µM (inactive) | 3.47 µM (inactive) | 19.5 µM (inactive) | 17.7 µM (inactive) | 31.7 µM (inactive) |  | 17.9 µM (inactive) | 19.9 µM (inactive) | 3.91 µM (inactive) | 2.27 µM (inactive) | 5.53 µM (inactive) |  |  |  |  | 
COC1CCC(=C2C(=O)OC(C)(C)OC2=O)N1 (stereo not drawn) | > 100 µM (inactive) | > 100 µM (inactive) | > 100 µM (inactive) | > 100 µM (inactive) | > 100 µM (inactive) | > 100 µM (inactive) | > 100 µM (inactive) | > 100 µM (inactive) | > 100 µM (inactive) | > 100 µM (inactive) | > 100 µM (inactive) | > 100 µM (inactive) | > 100 µM (inactive) | > 100 µM (inactive) | > 100 µM (inactive) |  |  |  |  | 
CC1(C)C(=O)C(O)=CC2C1=CCC1C2(C)C(=O)CC2(C)C(C(C)(O)C(=O)CC(O)C(C)(C)O)C(O)CC12C (stereo not drawn) | 3.52 µM (inactive) | 2.85 µM (inactive) | 5.52 µM (inactive) | 3.35 µM (inactive) | 3.35 µM (inactive) | 12.6 µM (inactive) | 2.65 µM (inactive) | 3.72 µM (inactive) | 2.61 µM (inactive) | 2.12 µM (inactive) | 3.04 µM (inactive) | 4.67 µM (inactive) | 2.56 µM (inactive) | 4.66 µM (inactive) | 2.3 µM (inactive) |  |  |  |  | 
CCN(CC)c1ccc(Cl)c2c1C(O)(C(C)C)C2(C)C (stereo not drawn) | 14.5 µM (inactive) | 15.8 µM (inactive) |  | 14.8 µM (inactive) | 11.8 µM (inactive) | 18.9 µM (inactive) | 16.8 µM (inactive) | 15.6 µM (inactive) | 14.1 µM (inactive) | 20 µM (inactive) | 19.9 µM (inactive) | 18.9 µM (inactive) | 16 µM (inactive) | 19 µM (inactive) | 17.4 µM (inactive) |  |  |  |  | 
COc1cccc2c1C(=O)c1c(O)c3c(c(O)c1C2=O)C[C@@](O)(C(C)=O)C[C@@H]3OC1OC(C)C(O)C(N)C1Br (stereo partly drawn) | 0.155 µM (active) | 0.0078 µM (active) | 0.105 µM (active) | 0.111 µM (active) | 0.152 µM (active) | 0.0557 µM (active) | 0.0295 µM (active) | 0.045 µM (active) | 0.267 µM (active) | 0.0139 µM (active) | 0.0202 µM (active) | 0.0442 µM (active) | 0.213 µM (active) | 0.0495 µM (active) | 0.0213 µM (active) | 0.00385 µM (active) |  | 0.269 µM (active) | 0.22 µM (active) | 0.0475 µM (active)
